These results are taken from patent US9227971B2, “Pyrazolo[1,5-a]pyrimidine compounds as mTOR inhibitors” (Merck Sharp & Dohme Corp., priority 2010, dated 2016).

SMILES strings stand for the structures.

One test relates to phosphorylated AKT Ser473 (pAKT S473), mTORC2 activity, PC3 cells. The test is described as follows: mTOR target engagement assay, immunofluorescent cell-based, pAKT S473 readout (mTORC2 activity). The conditions noted are these: Homo sapiens, PC-3, PC3 cells. The method, then:
The target engagement of mTOR kinase inhibitors was evaluated using an immunofluorescent cell-based assay. In this assay, inhibition of mTORC1 activity was measured by the reduction in the level of phosphorylated 4E-BP1^[…] (p4E-BP1 Thr37/46), and inhibition of mTORC2 activity was measured by the reduction of phosphorylated AKT^Ser473 (pAKT S473).
PC3 cells (prostate tumor cell-line that contains a mutation in the tumor suppressor PTEN, that promotes the phosphorylation and activation of AKT and 4E-BP1) were used in the immunofluorescence assay. […] PC3 cells were then treated with 40 μl of the serially diluted test compounds (in 5% fetal bovine serum, F12 medium containing 0.25% DMSO) for ninety minutes at 37° C. The test compound solution was removed, and the plates were washed gently two times with 25 μl phosphate buffered saline (PBS). […] 5% Goat serum in PBS/0.3% Triton was used to block non-specific binding (60 minutes).
The primary antibodies targeting pAKT S473 and p4E-BP1 Thr37/46 were diluted into PBS/0.3% Triton and incubated with the cells overnight at 4° C. […] Plates were washed three times with PBS/0.1% Tween 20 before adding the secondary antibody at a 1:200 dilution.
Finally, the plates were washed three times with PBS/0.1% Tween 20 and the fluorescent intensity was read using an Analyst HT from Molecular Devices.
As a reminder, the IC50 is the concentration needed to halve the response being measured. A high value points to weaker potency in that assay. As for `CC(=O)c1c(N2CC3CCC(C2)N3C(=O)c2nnc[nH]2)nc2c(-c3ccc(-c4ccccc4)nc3)cnn2c1N` [Compound 8.1, 1-(5-(8-(4H-1,2,4-triazole-3-carbonyl)-3,8-diazabicyclo[3.2.1]octan-3-yl)-7-amino-3-(6-phenylpyridin-3-yl)pyrazolo[1,5-a]pyrimidin-6-yl)ethanone], the half-maximal inhibitory concentration (IC50) is 100 to 1000 nM.
Same read-out and setting: to `Nc1ncc(-c2cnn3c(N)cc([C@@H]4C[C@H]5CC[C@@H](C4)N5C(=O)c4nnc[nH]4)nc23)cn1` [Compound 8.88, ((1R,3s,5S)-3-(7-amino-3-(2-aminopyrimidin-5-yl)pyrazolo[1,5-a]pyrimidin-5-yl)-8-azabicyclo[3.2.1]octan-8-yl)(4H-1,2,4-triazol-3-yl)methanone] belongs greater than 10000 nM; to `CC(=O)c1c([C@H]2CC3CC[C@H](C2)N3C(=O)c2nnc[nH]2)nc2c(-c3cnc4c(c3)CCC4O)cnn2c1N` (stereo partly drawn) [Compound 7.60, 1-(5-((1R,3s,5S)-8-(4H-1,2,4-triazole-3-carbonyl)-8-azabicyclo[3.2.1]octan-3-yl)-7-amino-3-(7-hydroxy-6,7-dihydro-5H-cyclopenta[b]pyridin-3-yl)pyrazolo[1,5-a]pyrimidin-6-yl)ethanone], 100 to 1000 nM; to `CC(=O)c1c(N2CC3CCC2CN3C(=O)[C@@H](C)O)nc2c(-c3ccc(-c4ccccc4)nc3)cnn2c1N` (stereo partly drawn) [Compound 8.4, (2R)-1-(5-(6-acetyl-7-amino-3-(6-phenylpyridin-3-yl)pyrazolo[1,5-a]pyrimidin-5-yl)-2,5-diazabicyclo[2.2.2]octan-2-yl)-2-hydroxypropan-1-one], 1000 to 10000 nM.

Staying with this test, now noted: Homo sapiens, PC-3, PC3 cells, compound treatment ninety minutes at 37° C.
Regarding `CC(=O)c1c([C@@H]2C[C@H]3CC[C@@H](C2)N3C(=O)[C@H](O)CO)nc2c(-c3ccc(-c4ccccc4)nc3)cnn2c1N` [Compound 1.1.3, (R)-1-((1R,3S,5S)-3-(6-acetyl-7-amino-3-(6-phenylpyridin-3-yl)pyrazolo[1,5-a]pyrimidin-5-yl)-8-azabicyclo[3.2.1]octan-8-yl)-2,3-dihydroxypropan-1-one], the IC50 was in the range of 100 to 1000 nM.
As to `CC(=O)c1c([C@@H]2C[C@H]3CC[C@@H](C2)N3C(=O)c2cnn[nH]2)nc2c(-c3ccc(C4(O)CCC4)nc3)cnn2c1N` [Compound 7.19, 1-(5-((1R,3s,5S)-8-(1H-1,2,3-triazole-5-carbonyl)-8-azabicyclo[3.2.1]octan-3-yl)-7-amino-3-(6-(1-hydroxycyclobutyl)pyridin-3-yl)pyrazolo[1,5-a]pyrimidin-6-yl)ethanone], the IC50 was 100 to 1000 nM.
`CC(=O)c1c([C@@H]2C[C@H]3CC[C@@H](C2)N3C(=O)[C@@H](C)O)nc2c(-c3ccc(-c4nccs4)nc3)cnn2c1N` [Compound 1.1.34, (R)-1-((1R,3S,5S)-3-(6-acetyl-7-amino-3-(6-(thiazol-2-yl)pyridin-3-yl)pyrazolo[1,5-a]pyrimidin-5-yl)-8-azabicyclo[3.2.1]octan-8-yl)-2-hydroxypropan-1-one] yielded a 50% inhibitory concentration (IC50) of 100 to 1000 nM.
The same measure, in the same setting: then `Cn1cnc(-c2ccc(-c3cnn4c(N)c(C5CC5)c([C@@H]5C[C@H]6CC[C@@H](C5)N6C(=O)c5nnc[nH]5)nc34)cn2)c1` [Compound 4.23, ((1R,3a,5S)-3-(7-amino-6-cyclopropyl-3-(6-(1-methyl-1H-imidazol-4-yl)pyridin-3-yl)pyrazolo[1,5-a]pyrimidin-5-yl)-8-azabicyclo[3.2.1]octan-8-yl)(4H-1,2,4-triazol-3-yl)methanone], with 1000 to 10000 nM; and `Cc1ccc(-c2cnn3c(N)c(C4CC4)c([C@@H]4C[C@H]5CC[C@@H](C4)N5C(=O)c4nnc[nH]4)nc23)cn1` [Compound 4.16, ((1R,3s,5S)-3-(7-amino-6-cyclopropyl-3-(6-methylpyridin-3-yl)pyrazolo[1,5-a]pyrimidin-5-yl)-8-azabicyclo[3.2.1]octan-8-yl)(4H-1,2,4-triazol-3-yl)methanone], with 100 to 1000 nM.
Consider `CC(=O)c1c([C@@H]2C[C@H]3CC[C@@H](C2)N3C(=O)C(C)(C)O)nc2c(-c3ccc(-c4ccccc4)nc3)cnn2c1N` [Compound 1.1.6, 1-((1R,3s,5S)-3-(6-acetyl-7-amino-3-(6-phenylpyridin-3-yl)pyrazolo[1,5-a]pyrimidin-5-yl)-8-azabicyclo[3.2.1]octan-8-yl)-2-hydroxy-2-methylpropan-1-one], for which the IC50 fell in the range of 100 to 1000 nM.

Still in this test, the particulars now being: Homo sapiens, PC-3, Table 6-1; PC3 cells.
As for `CC(=O)OCC(=O)N1[C@@H]2CC[C@H]1C[C@H](c1nc3c(-c4ccc(-c5ncc[nH]5)nc4)cnn3c(N)c1C(C)=O)C2` [Compound 6.9, 2-((1R,3s,5S)-3-(3-(6-(1H-imidazol-2-yl)pyridin-3-yl)-6-acetyl-7-aminopyrazolo[1,5-a]pyrimidin-5-yl)-8-azabicyclo[3.2.1]octan-8-yl)-2-oxoethyl acetate], the IC50 lay within 100 to 1000 nM.
As to `CC(=O)c1c([C@@H]2C[C@H]3CC[C@@H](C2)N3C(=O)C(C)(C)CO)nc2c(-c3ccc(-c4ncc[nH]4)nc3)cnn2c1N` [Compound 6.45, 1-((1R,3s,5S)-3-(3-(6-(1H-imidazol-2-yl)pyridin-3-yl)-6-acetyl-7-aminopyrazolo[1,5-a]pyrimidin-5-yl)-8-azabicyclo[3.2.1]octan-8-yl)-3-hydroxy-2,2-dimethylpropan-1-one], the IC50 was in the range of 100 to 1000 nM.
As for `COCCOCC(=O)N1[C@@H]2CC[C@H]1C[C@H](c1nc3c(-c4ccc(-c5ncc[nH]5)nc4)cnn3c(N)c1C(C)=O)C2` [Compound 6.13, 1-((1R,3s,5S)-3-(3-(6-(1H-imidazol-2-yl)pyridin-3-yl)-6-acetyl-7-aminopyrazolo[1,5-a]pyrimidin-5-yl)-8-azabicyclo[3.2.1]octan-8-yl)-2-(2-methoxyethoxy)ethanone], the IC50 was in the range of 1 to 100 nM.
Regarding `CC(=O)c1c([C@@H]2C[C@H]3CC[C@@H](C2)N3C(=O)c2cc(N)n[nH]2)nc2c(-c3ccc(-c4ncc[nH]4)nc3)cnn2c1N` [Compound 6.17, 1-(3-(6-(1H-imidazol-2-yl)pyridin-3-yl)-7-amino-5-((1R,3s,5S)-8-(3-amino-1H-pyrazole-5-carbonyl)-8-azabicyclo[3.2.1]octan-3-yl)pyrazolo[1,5-a]pyrimidin-6-yl)ethanone], the IC50 was in the range of 1 to 100 nM.
`CC(=O)c1c([C@@H]2C[C@H]3CC[C@@H](C2)N3C(=O)[C@H](C)O)nc2c(-c3ccc(-c4ncc[nH]4)nc3)cnn2c1N` [Compound 6.8, (S)-1-((1R,3R,5S)-3-(3-(6-(1H-imidazol-2-yl)pyridin-3-yl)-6-acetyl-7-aminopyrazolo[1,5-a]pyrimidin-5-yl)-8-azabicyclo[3.2.1]octan-8-yl)-2-hydroxypropan-1-one] displayed an IC50 of 1 to 100 nM.

Staying with this test, now noted: Table 3-1; PC3 cells.
In turn, `CS(=O)(=O)c1c([C@@H]2C[C@H]3CC[C@@H](C2)N3C(=O)CO)nc2c(-c3ccc(-c4ccc(F)cc4)nc3)cnn2c1N` [Compound 3.118, 1-((1R,3a,5S)-3-(7-amino-3-(6-(4-fluorophenyl)pyridin-3-yl)-6-(methylsulfonyl)pyrazolo[1,5-a]pyrimidin-5-yl)-8-azabicyclo[3.2.1]octan-8-yl)-2-hydroxyethanone] gave an IC50 of 100 to 1000 nM.

The same test, now with this note: Table 7-2; PC3 cells.
`CS(=O)(=O)c1c([C@@H]2C[C@H]3CC[C@@H](C2)N3C(=O)CO)nc2c(-c3ccc(C4(O)CCC4)nc3)cnn2c1N` [Compound 7.28, 1-((1R,3s,5S)-3-(7-amino-3-(6-(1-hydroxycyclobutyl)pyridin-3-yl)-6-(methylsulfonyl)pyrazolo[1,5-a]pyrimidin-5-yl)-8-azabicyclo[3.2.1]octan-8-yl)-2-hydroxyethanone]: the IC50 is 100 to 1000 nM.
